The values that follow come from patent US20030032834A1, “Aminoalcohol derivatives” (priority 2000, published 2003).

Counter-ions that a name gives are not always drawn.

The test system of this experiment is increase in intravesical pressure induced by carbachol in anesthetized dog. As to the kind of experiment: Effect on the increase in intravesical pressure induced by carbachol in anesthetized dog. To be noted: 0.01 mg/kg injected intravenously 5 minutes before carbachol (1.8 μg/kg); anesthetized female Beagle dogs; N = 5; Before 6.2 ± 1.1; *P < 0.01 vs Before (ANOVA). The class given is in vivo. Here is the method:
Effect on the increase in intravesical pressure induced by carbachol in anesthetized dog
Female Beagle dogs weighing 8.0-15.0 kg were fasted for 24 hours and maintained under halothane anesthesia. A 12F Foley catheter was lubricated with water soluble jelly, inserted into the urethral orifice and advanced approximately 10 cm until the balloon tip was placed well inside the bladder. The balloon was then inflated with 5 ml of room air and catheter slowly withdrawn just part the first resistance that is felt at the bladder neck. Urine was completely drained out through the catheter, and 30 ml of biological saline was infused. The catheter was connected to pressure transducer, and intravesical pressure was continuously recorded. The test compound was injected intravenously at 5 minutes before the administration of carbachol (1.8 μg/kg).

With `COC(=O)Nc1ccc(C(CCNC[C@H](O)COc2ccccc2)c2ccc(NC(=O)OC)cc2)cc1` [Test Compound (1), (2S)-1-Phenoxy-3-[3,3-bis[4-(methoxycarbonylamino)-phenyl]propylamino]-2-propanol sulfate (2:1) (crystal Form A)], the “Increase in intravesical pressure (mmHg)” value is reported as 4.9 ± 0.9* mmHg.
